Here are results for ten compounds from patent US20120083476A1, “HETEROARYL-SUBSTITUTED SPIROCYCLIC DIAMINE UREA MODULATORS OF FATTY ACID AMIDE HYDROLASE” (Janssen Pharmaceutica NV, priority 2009, published 2012).

The target of one test is T1, Rat FAAH (Rattus norvegicus, UniProt P97612).
T1 construct: expressed in transfected cells; host or cells: SK-N-MC cells stably transfected with rat FAAH cDNA (G418 selection)
T1 sequence (P97612 1-579): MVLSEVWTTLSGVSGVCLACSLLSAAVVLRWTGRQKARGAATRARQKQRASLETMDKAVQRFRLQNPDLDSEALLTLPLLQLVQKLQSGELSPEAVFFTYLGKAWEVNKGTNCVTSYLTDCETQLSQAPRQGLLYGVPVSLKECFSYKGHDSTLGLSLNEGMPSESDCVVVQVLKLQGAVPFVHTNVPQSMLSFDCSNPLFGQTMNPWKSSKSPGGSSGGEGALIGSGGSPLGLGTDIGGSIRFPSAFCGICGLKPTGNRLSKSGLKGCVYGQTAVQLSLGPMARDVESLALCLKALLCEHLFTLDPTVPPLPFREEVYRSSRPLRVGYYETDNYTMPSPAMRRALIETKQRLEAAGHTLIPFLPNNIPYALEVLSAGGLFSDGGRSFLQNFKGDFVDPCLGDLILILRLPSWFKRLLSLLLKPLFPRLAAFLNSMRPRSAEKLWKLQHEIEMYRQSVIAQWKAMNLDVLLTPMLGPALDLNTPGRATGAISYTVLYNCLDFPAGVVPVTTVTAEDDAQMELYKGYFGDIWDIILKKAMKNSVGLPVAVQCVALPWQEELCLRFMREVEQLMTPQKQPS
Kind of test: Assay Method 2: rat FAAH assay (3H-anandamide hydrolysis in cell homogenate). Format: biochemical. The following applies: read-out: Assay 2 IC50. The procedure, abridged:
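Homogenates of T84 cells or SK-N-MC cells stably transfected with rat FAAH, in pH 9 Tris/EDTA/glycerol/Triton buffer, incubated 1 h at room temperature with 3H-anandamide. Released labeled ethanolamine separated from substrate on activated charcoal and counted by scintillation; values averaged over runs.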

For a further test, the target named is T2, FAAH (Homo sapiens, UniProt O00519).
T2 sequence (O00519 1-579): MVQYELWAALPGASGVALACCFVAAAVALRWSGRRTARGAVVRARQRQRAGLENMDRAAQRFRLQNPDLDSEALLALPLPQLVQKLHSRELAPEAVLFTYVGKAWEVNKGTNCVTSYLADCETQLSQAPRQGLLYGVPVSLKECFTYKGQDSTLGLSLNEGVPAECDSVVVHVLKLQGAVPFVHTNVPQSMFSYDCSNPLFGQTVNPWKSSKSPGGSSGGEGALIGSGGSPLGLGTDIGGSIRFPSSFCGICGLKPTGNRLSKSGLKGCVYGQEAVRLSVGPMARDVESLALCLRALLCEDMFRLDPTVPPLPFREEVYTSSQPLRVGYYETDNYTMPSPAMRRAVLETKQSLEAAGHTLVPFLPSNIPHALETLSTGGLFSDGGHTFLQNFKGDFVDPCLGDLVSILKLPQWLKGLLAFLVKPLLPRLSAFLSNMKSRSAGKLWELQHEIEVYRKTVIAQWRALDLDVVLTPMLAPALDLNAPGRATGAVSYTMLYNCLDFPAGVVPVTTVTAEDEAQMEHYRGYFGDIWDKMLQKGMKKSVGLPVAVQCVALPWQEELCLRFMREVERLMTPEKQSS
The experiment in a line: Assay Method 1: human FAAH assay (3H-anandamide hydrolysis in cell homogenate). Format: biochemical. More on the design: expressed in transfected cells; host or cells: SK-N-MC cells stably transfected with human FAAH cDNA (G418 selection); alternatively T84 cell pellets. The following applies: read-out: Assay 1 IC50. The procedure, abridged: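 Homogenates of T84 cells or SK-N-MC cells stably transfected with human FAAH, in pH 9 Tris/EDTA buffer with 0.02% Triton X-100. Incubated 1 h at rt with compound and 80 nM (final) [3H-ethanolamine]-anandamide. Released 3H-ethanolamine separated on charcoal filters and counted by scintillation.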

One may read the IC50 as the point on the concentration scale where inhibition reaches its midpoint.

Counter-ions that a name gives are not always drawn. Bounds are passed on as bounds.

Consider `O=C(Nc1ccnc(C(F)(F)F)n1)N1CC2(CCN(Cc3cccc(Oc4ccc(Cl)cc4)c3)CC2)C1` [Example 71, 7-[3-(4-Chloro-phenoxy)-benzyl]-2,7-diaza-spiro[3.5]nonane-2-carboxylic acid (2-trifluoromethyl-pyrimidin-4-yl)-amide, trifluoroacetic acid salt], for which the IC50 is 5000 nM on Rat FAAH and greater than 10000 nM on FAAH.

As to `COc1nccc(NC(=O)N2CC3(CCN(Cc4cccc(Oc5ccc(Cl)cc5)c4)CC3)C2)n1` [Example 72, 7-[3-(4-Chloro-phenoxy)-benzyl]-2,7-diaza-spiro[3.5]nonane-2-carboxylic acid (2-methoxy-pyrimidin-4-yl)-amide, trifluoroacetic acid salt], the IC50 at Rat FAAH amounted to 60 nM; on FAAH, 1700 nM.

Turning to `O=C(Nc1cncc(F)c1)N1CC2(CCN(Cc3cccc(Oc4ccc(Cl)cc4)c3)CC2)C1` [Example 73, 7-[3-(4-Chloro-phenoxy)-benzyl]-2,7-diaza-spiro[3.5]nonane-2-carboxylic acid (5-fluoro-pyridin-3-yl)-amide, trifluoroacetic acid salt], the figures for the IC50 at Rat FAAH and on FAAH were 450 nM and 80 nM, respectively.

For the compound `O=C(Nc1ccnc2[nH]ccc12)N1CC2(CCN(Cc3cccc(Oc4ccc(Cl)cc4)c3)CC2)C1` [Example 74, 7-[3-(4-Chloro-phenoxy)-benzyl]-2,7-diaza-spiro[3.5]nonane-2-carboxylic acid (1H-pyrrolo[2,3-b]pyridin-4-yl)-amide, trifluoroacetic acid salt], the values for the IC50 on Rat FAAH and at FAAH were 2000 nM and greater than 10000 nM, respectively.

As for `Cc1nn(C)c2ncc(NC(=O)N3CC4(CCN(Cc5cccc(Oc6ccc(Cl)cc6)c5)CC4)C3)cc12` [Example 75, 7-(3-(4-chlorophenoxy)benzyl)-N-(1,3-dimethyl-1H-pyrazolo[3,4-b]pyridin-5-yl)-2,7-diazaspiro[3.5]nonane-2-carboxamide, trifluoroacetic acid salt], the values for the IC50 on Rat FAAH and on FAAH were 400 nM and 2500 nM, respectively.

For the compound `Cc1cc(NC(=O)N2CC3(CCN(Cc4cccc(Oc5ccc(Cl)cc5)c4)CC3)C2)no1` [Example 76, 7-(3-(4-chlorophenoxy)benzyl)-N-(5-methylisoxazol-3-yl)-2,7-diazaspiro[3.5]nonane-2-carboxamide, trifluoroacetic acid salt], the IC50 on Rat FAAH and at FAAH was greater than 10000 nM throughout.

Turning to `Cc1nc2ccc(NC(=O)N3CC4(CCN(Cc5cccc(Oc6ccc(Cl)cc6)c5)CC4)C3)cc2s1` [Example 77, 7-(3-(4-chlorophenoxy)benzyl)-N-(2-methylbenzo[d]thiazol-6-yl)-2,7-diazaspiro[3.5]nonane-2-carboxamide, trifluoroacetic acid salt], the IC50 on Rat FAAH and on FAAH was greater than 10000 nM in each case.

Regarding `Cc1cc(NC(=O)N2CC3(CCN(Cc4cccc(Oc5ccc(Cl)cc5)c4)CC3)C2)n[nH]1` [Example 78, 7-(3-(4-chlorophenoxy)benzyl)-N-(5-methyl-1H-pyrazol-3-yl)-2,7-diazaspiro[3.5]nonane-2-carboxamide, trifluoroacetic acid salt], the IC50 at Rat FAAH and at FAAH was greater than 10000 nM in each case.

Consider `Cc1cncc(NC(=O)N2CC3(CCN(Cc4cccc(Oc5ccc(Cl)cc5)c4)CC3)C2)c1` [Example 79, 7-(3-(4-chlorophenoxy)benzyl)-N-(5-methylpyridin-3-yl)-2,7-diazaspiro[3.5]nonane-2-carboxamide, trifluoroacetic acid salt], for which the figures for the IC50 at Rat FAAH and at FAAH were 30 nM and 70 nM, respectively.

Consider `O=C(Nc1cccnc1F)N1CC2(CCN(Cc3cccc(Oc4ccc(Cl)cc4)c3)CC2)C1` [Example 80, 7-(3-(4-chlorophenoxy)benzyl)-N-(2-fluoropyridin-3-yl)-2,7-diazaspiro[3.5]nonane-2-carboxamide, trifluoroacetic acid salt], for which the IC50 at Rat FAAH turned out to be 570 nM; on FAAH, 140 nM.
